Measured values published in ChEMBL document CHEMBL1201862, “PubChem BioAssay data set” (2004).
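Exposure lasted 48 hours, with cells grown in 96-well plates and compounds tested at five concentrations. At the GI50, growth is halved.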 Active and inactive are the calls of the source. Rule as the data show it: active = GI50 up to about 1.1 µM and inactive = higher.

Experiments:
Experiment in all cases: inhibition of tumour cell growth, NCI panel, 48 h
SNB-75 = system: SNB-75
SK-MEL-28 = system: SK-MEL-28
KM12 = system: KM12
UACC-257 = system: UACC-257
Malme-3M = system: Malme-3M
SF-295 = system: SF-295
SW-620 = system: SW-620
HCT-15 = system: HCT-15
BT-549 = system: BT-549
SK-MEL-5 = system: SK-MEL-5
U-251 = system: U-251
A498 = system: A498
HT-29 = system: HT-29
SNB-19 = system: SNB-19
PC-3 = system: PC-3
UO-31 = system: UO-31
T47D = system: T47D
RPMI-8226 = system: RPMI-8226
COLO 205 = system: COLO 205

SMILES | GI50 (SNB-75) | GI50 (SK-MEL-28) | GI50 (KM12) | GI50 (UACC-257) | GI50 (Malme-3M) | GI50 (SF-295) | GI50 (SW-620) | GI50 (HCT-15) [µM] | GI50 (BT-549) | GI50 (SK-MEL-5) | GI50 (U-251) | GI50 (A498) | GI50 (HT-29) | GI50 (SNB-19) | GI50 (PC-3) | GI50 (UO-31) | GI50 (T47D) | GI50 (RPMI-8226) | GI50 (COLO 205)
Cn1c(=O)c2nc(CCNC(=O)c3ccccc3)[nH]c2n(C)c1=O | > 100 µM (inactive) | > 100 µM (inactive) | > 100 µM (inactive) | > 100 µM (inactive) | > 100 µM (inactive) | > 100 µM (inactive) | > 100 µM (inactive) | > 100 | > 100 µM (inactive) | > 100 µM (inactive) | > 100 µM (inactive) | > 100 µM (inactive) | > 100 µM (inactive) | > 100 µM (inactive) | > 100 µM (inactive) | > 100 µM (inactive) | > 100 µM (inactive) |  | 
CC1(C)OC(CCC#N)CN1C(=O)OCc1ccccc1 (configuration not stated) | 3.4 µM (inactive) | > 100 µM (inactive) | 28.9 µM (inactive) | > 100 µM (inactive) | 49 µM (inactive) | > 100 µM (inactive) | > 100 µM (inactive) | > 100 | 20.7 µM (inactive) | 68.4 µM (inactive) | > 100 µM (inactive) | > 100 µM (inactive) |  | 9.57 µM (inactive) | > 100 µM (inactive) | > 100 µM (inactive) |  | > 100 µM (inactive) | > 100 µM (inactive)
Cc1cccc(Nc2nn3c(=O)c4c5c(sc4nc3s2)CCCC5)c1 | 23.2 µM (inactive) | > 100 µM (inactive) | 16.1 µM (inactive) | 21.5 µM (inactive) | 3.15 µM (inactive) | 3.08 µM (inactive) | 91.2 µM (inactive) | 6.41 | 25.8 µM (inactive) | 2.4 µM (inactive) | 46.2 µM (inactive) |  | 10.4 µM (inactive) | > 100 µM (inactive) | 38.7 µM (inactive) | > 100 µM (inactive) | 9.82 µM (inactive) |  | 3.69 µM (inactive)
Cc1ccc2nc(-c3ccc(N4C(=O)C(Cl)C4c4ccc(Cl)cc4)cc3)sc2c1 (configuration not stated) |  | 8.75 µM (inactive) | 16.8 µM (inactive) | 25.1 µM (inactive) | 28.8 µM (inactive) | 15.1 µM (inactive) | 21.5 µM (inactive) | 27.3 | 36.7 µM (inactive) | 14.2 µM (inactive) | 19.2 µM (inactive) |  | 1.95 µM (inactive) | 33.1 µM (inactive) | 10.5 µM (inactive) | 21.4 µM (inactive) | 27.8 µM (inactive) | 11.5 µM (inactive) | 14.6 µM (inactive)
NN/C(=N\S(=O)(=O)c1cccc2nsnc12)Nc1ccc(Cl)cc1 | 65.9 µM (inactive) | > 100 µM (inactive) | > 100 µM (inactive) | > 100 µM (inactive) |  | > 100 µM (inactive) | > 100 µM (inactive) | > 100 | > 100 µM (inactive) | > 100 µM (inactive) | > 100 µM (inactive) | > 100 µM (inactive) | > 100 µM (inactive) | > 100 µM (inactive) | > 100 µM (inactive) | > 100 µM (inactive) | 48.6 µM (inactive) | > 100 µM (inactive) | > 100 µM (inactive)
c1cc(CN2CCNCCNCCNCC2)cc(CN2CCNCCNCCNCC2)c1 | > 100 µM (inactive) | > 100 µM (inactive) | > 100 µM (inactive) | > 100 µM (inactive) | > 100 µM (inactive) | > 100 µM (inactive) | > 100 µM (inactive) | > 10 | > 100 µM (inactive) | > 100 µM (inactive) | > 100 µM (inactive) |  | > 100 µM (inactive) | > 100 µM (inactive) | > 100 µM (inactive) | > 100 µM (inactive) | > 100 µM (inactive) | > 100 µM (inactive) | > 100 µM (inactive)
C=CCc1cccc2cc(C(N)=O)c(=N)oc12 | 54.7 µM (inactive) | > 100 µM (inactive) | > 100 µM (inactive) | > 100 µM (inactive) |  |  | > 100 µM (inactive) | > 100 | > 100 µM (inactive) | > 100 µM (inactive) | > 100 µM (inactive) | 77.3 µM (inactive) | > 100 µM (inactive) | > 100 µM (inactive) | > 100 µM (inactive) |  | 41.5 µM (inactive) | > 100 µM (inactive) | > 100 µM (inactive)
CC(C)CC(NC(=O)OCc1ccccc1)C(=O)NCCCCC(N)C(=O)NC(CCCCNC(=O)C(CC(C)C)NC(=O)OCc1ccccc1)C(=O)NC(CCCCNC(=O)C(CC(C)C)NC(=O)OCc1ccccc1)C(=O)NC(CCCCNC(=O)C(CC(C)C)NC(=O)OCc1ccccc1)C(=O)NC(CCCCNC(=O)C(CC(C)C)NC(=O)OCc1ccccc1)C(=O)NC(CCCCNC(=O)C(CC(C)C)NC(=O)OCc1ccccc1)C(=O)O (configuration not stated) |  |  |  | > 100 µM (inactive) | > 100 µM (inactive) |  | > 100 µM (inactive) | > 100 | > 100 µM (inactive) | > 100 µM (inactive) | > 100 µM (inactive) | > 100 µM (inactive) | > 100 µM (inactive) | > 100 µM (inactive) | > 100 µM (inactive) | > 100 µM (inactive) | > 100 µM (inactive) | > 100 µM (inactive) | 
Cc1ccccc1NC(=O)C(=O)CC(=O)c1sc(Nc2ccccc2[N+](=O)[O-])nc1C |  | 25.7 µM (inactive) | 47.5 µM (inactive) | 29.9 µM (inactive) |  | 22.5 µM (inactive) | 36.1 µM (inactive) | 52.4 | 30.7 µM (inactive) | 27.8 µM (inactive) | 30.3 µM (inactive) |  | 26.7 µM (inactive) | 34.7 µM (inactive) | 28.1 µM (inactive) | 10.4 µM (inactive) | 27.2 µM (inactive) | 27.9 µM (inactive) | 86.1 µM (inactive)
N/C(CSCCSC/C(N)=N/O)=N\O | > 100 µM (inactive) | > 100 µM (inactive) | > 100 µM (inactive) |  | > 100 µM (inactive) |  | > 100 µM (inactive) | > 100 | > 100 µM (inactive) | > 100 µM (inactive) | > 100 µM (inactive) |  | > 100 µM (inactive) | > 100 µM (inactive) | > 100 µM (inactive) | > 100 µM (inactive) | > 100 µM (inactive) | > 100 µM (inactive) | > 100 µM (inactive)
COc1ccc(/C=C2\CCC(C)/C(=C\c3ccc(OC)c(OC)c3)C2=O)cc1OC (configuration not stated) |  | 10.7 µM (inactive) | 2.55 µM (inactive) | 2.88 µM (inactive) | 4.58 µM (inactive) | 5.36 µM (inactive) | 6.59 µM (inactive) | 5.37 | 4.6 µM (inactive) | 3.61 µM (inactive) | 5.43 µM (inactive) | 9.08 µM (inactive) | 4.38 µM (inactive) | 11.2 µM (inactive) | 3.39 µM (inactive) | 8.45 µM (inactive) | 3.35 µM (inactive) | 2.51 µM (inactive) | 8.39 µM (inactive)
O=C(O)Cc1cccc2c1OC(c1ccccc1)C(C(=O)c1ccccc1)C2=O (configuration not stated) | 12.2 µM (inactive) | 65.3 µM (inactive) | 25.6 µM (inactive) | > 100 µM (inactive) | 63.4 µM (inactive) | 37.4 µM (inactive) | 37.8 µM (inactive) | 98.4 | > 100 µM (inactive) | > 100 µM (inactive) | 40.9 µM (inactive) |  | > 10 µM (inactive) | 45.9 µM (inactive) | > 100 µM (inactive) | 88.9 µM (inactive) | 10.1 µM (inactive) | 33.6 µM (inactive) | 67.6 µM (inactive)
Cc1cc(O)c(C(c2cccnc2)c2c(O)cc(C)[nH]c2=O)c(=O)[nH]1 |  | > 100 µM (inactive) | > 100 µM (inactive) | > 100 µM (inactive) | > 100 µM (inactive) | > 100 µM (inactive) |  | > 100 | > 100 µM (inactive) | > 100 µM (inactive) | > 100 µM (inactive) |  | > 100 µM (inactive) | > 100 µM (inactive) | > 100 µM (inactive) | > 100 µM (inactive) | > 100 µM (inactive) | > 100 µM (inactive) | > 100 µM (inactive)
CCCCc1ccc(Nc2nc(Cl)c3ncn(C4CC(Oc5ccc(C)cc5)C(COc5ccc(C)cc5)O4)c3n2)cc1 (configuration not stated) | > 100 µM (inactive) |  | > 100 µM (inactive) | > 100 µM (inactive) | > 100 µM (inactive) | > 100 µM (inactive) | > 100 µM (inactive) | > 100 | > 100 µM (inactive) | > 100 µM (inactive) |  | > 100 µM (inactive) | > 100 µM (inactive) | > 100 µM (inactive) |  | > 100 µM (inactive) | > 100 µM (inactive) | > 100 µM (inactive) | > 100 µM (inactive)
C=C(C)C(=O)O[C@H]1C[C@@]23O[C@@H]2CCC(=C[C@H]2OC(=O)C(=C)[C@H]12)COC3O (some centres not stated) | > 100 µM (inactive) |  | > 100 µM (inactive) | > 100 µM (inactive) |  | > 100 µM (inactive) | 17.9 µM (inactive) | 19.5 | 37.1 µM (inactive) | > 100 µM (inactive) | > 100 µM (inactive) | > 100 µM (inactive) | 57.5 µM (inactive) | > 100 µM (inactive) | > 100 µM (inactive) |  | 35.4 µM (inactive) | 23.4 µM (inactive) | 21.2 µM (inactive)
CC1C2C=CC1C(c1c3ccc(=O)c(O)c-3oc3c(O)c(O)ccc13)C2C(=O)O (configuration not stated) |  | > 100 µM (inactive) | 50.2 µM (inactive) | > 100 µM (inactive) |  | 43.2 µM (inactive) | 34.3 µM (inactive) | 47.2 | > 100 µM (inactive) | 91.6 µM (inactive) | 36.5 µM (inactive) | > 100 µM (inactive) | > 100 µM (inactive) | > 100 µM (inactive) | > 100 µM (inactive) | > 100 µM (inactive) | > 100 µM (inactive) | 23.2 µM (inactive) | > 100 µM (inactive)
